Assay results: ChEMBL document CHEMBL1201862, “PubChem BioAssay data set” (2004)
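Following 48 hours of exposure in 96-well plates, responses at five concentrations were used to interpolate endpoints linearly. Here, GI50 denotes the concentration required for 50% inhibition of growth.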 Calls of active or inactive are those of the source. Rule as the data show it: active = GI50 up to about 1.1 µM and inactive = higher.

How the values were obtained:
Assay in all cases: growth of human tumour cells (NCI), 48 h
OVCAR-8 = system: OVCAR-8
IGROV-1 = system: IGROV-1
HL-60 = system: HL-60
NCI-H460 = system: NCI-H460
HT-29 = system: HT-29
SK-MEL-5 = system: SK-MEL-5
ACHN = system: ACHN
TK-10 = system: TK-10
Hs-578T = system: Hs-578T
OVCAR-3 = system: OVCAR-3
MCF7 = system: MCF7
UACC-257 = system: UACC-257
SNB-19 = system: SNB-19
MDA-MB-231 = system: MDA-MB-231
CCRF-CEM = system: CCRF-CEM
NCI-H522 = system: NCI-H522
SF-268 = system: SF-268
SF-295 = system: SF-295
DU-145 = system: DU-145
HCC 2998 = system: HCC 2998

SMILES | GI50 (OVCAR-8) | GI50 (IGROV-1) | GI50 (HL-60) | GI50 (NCI-H460) | GI50 (HT-29) | GI50 (SK-MEL-5) | GI50 (ACHN) | GI50 (TK-10) | GI50 (Hs-578T) | GI50 (OVCAR-3) | GI50 (MCF7) | GI50 (UACC-257) | GI50 (SNB-19) | GI50 (MDA-MB-231) | GI50 (CCRF-CEM) | GI50 (NCI-H522) | GI50 (SF-268) | GI50 (SF-295) | GI50 (DU-145) | GI50 (HCC 2998)
CC1CC(=O)Nc2nc3ccccc3n21 (stereo not given) | > 100 µM (inactive) | > 100 µM (inactive) | > 100 µM (inactive) | > 100 µM (inactive) | > 100 µM (inactive) | > 100 µM (inactive) | > 100 µM (inactive) | > 100 µM (inactive) | > 100 µM (inactive) | > 100 µM (inactive) | > 100 µM (inactive) | > 100 µM (inactive) | > 100 µM (inactive) | > 100 µM (inactive) | > 100 µM (inactive) | > 100 µM (inactive) | > 100 µM (inactive) | > 100 µM (inactive) | – | –
CC(=O)OCc1cccc(O)c1C(=O)CCC=C(C)C | – | > 100 µM (inactive) | 34.7 µM (inactive) | > 100 µM (inactive) | > 100 µM (inactive) | > 100 µM (inactive) | > 100 µM (inactive) | > 100 µM (inactive) | > 100 µM (inactive) | > 100 µM (inactive) | > 100 µM (inactive) | > 100 µM (inactive) | > 100 µM (inactive) | – | 74.6 µM (inactive) | 27.1 µM (inactive) | > 100 µM (inactive) | 32.7 µM (inactive) | > 100 µM (inactive) | > 100 µM (inactive)
COc1cc2c(c(O)c1O)C(=O)C1CCC(=O)N1C2c1cccc2ccccc12 (stereo not given) | > 50 µM (inactive) | > 50 µM (inactive) | > 50 µM (inactive) | > 50 µM (inactive) | > 50 µM (inactive) | – | > 50 µM (inactive) | – | > 50 µM (inactive) | > 50 µM (inactive) | > 50 µM (inactive) | > 50 µM (inactive) | > 50 µM (inactive) | – | > 50 µM (inactive) | > 50 µM (inactive) | > 50 µM (inactive) | > 50 µM (inactive) | > 50 µM (inactive) | –
Nc1nc(Cl)cc(OCC2(CO)CC=CC2)n1 | > 100 µM (inactive) | > 100 µM (inactive) | > 100 µM (inactive) | > 100 µM (inactive) | > 100 µM (inactive) | > 100 µM (inactive) | > 100 µM (inactive) | > 100 µM (inactive) | > 100 µM (inactive) | > 100 µM (inactive) | > 100 µM (inactive) | > 100 µM (inactive) | > 100 µM (inactive) | – | > 100 µM (inactive) | > 100 µM (inactive) | > 100 µM (inactive) | > 100 µM (inactive) | > 100 µM (inactive) | > 100 µM (inactive)
CCOC(=O)C1C=C1C(C)(C)O (stereo not given) | > 10 µM (inactive) | > 10 µM (inactive) | > 10 µM (inactive) | > 10 µM (inactive) | > 10 µM (inactive) | > 10 µM (inactive) | > 10 µM (inactive) | > 10 µM (inactive) | > 10 µM (inactive) | > 10 µM (inactive) | > 10 µM (inactive) | > 10 µM (inactive) | > 10 µM (inactive) | – | > 10 µM (inactive) | – | > 10 µM (inactive) | > 10 µM (inactive) | > 10 µM (inactive) | –
COc1cc(C2c3cc4c(cc3[C@@H](Nc3ccc(F)cc3)C3CO[C@@H](O)[C@H]23)OCO4)cc(OC)c1O (stereo not given in full) | 6.01 µM (inactive) | 7.62 µM (inactive) | 0.598 µM (active) | 0.169 µM (active) | – | 6.18 µM (inactive) | 1.05 µM (active) | 12.3 µM (inactive) | 0.697 µM (active) | – | 1.9 µM (inactive) | 20.7 µM (inactive) | 3.64 µM (inactive) | 3.48 µM (inactive) | 0.925 µM (active) | 3.16 µM (inactive) | 6.71 µM (inactive) | 1.24 µM (inactive) | – | 11 µM (inactive)
